Data on 3 compounds can be found in PMC6447882, “Pharmacokinetics and Biodistribution of Pegylated Methotrexate after IV Administration to Mice” (Iranian Journal of Pharmaceutical Research : IJPR, 2018).

One data set in a line: in vivo. The note with it: mice; for half-life: iv. The method, then:
A portion of 500 μL acetonitrile was added to a mixture of 225 μL plasma and 25 μL MTX or MTX-PEG5000 solution (100 µg/mL) and vortexed. Precipitated proteins were separated by centrifuging the mixture at 12000 rpm for 5 min. The supernatant was evaporated by a Multi-Evaporator (VLM EC 1, Italy) at 50 °C using nitrogen gas. The residue was dissolved in 150 μL mobile phase and injected to HPLC. The standards were prepared in triplicate at eight concentrations ranging from 0.25 to 100 µg/mL for MTX and from 1 to 1000 µg/mL for MTX-PEG5000.
A Knauer HPLC system consisted of a wellchrom pump k-1001, equipped with k-2701, DAD k-2700 detector was used. Chromatography was performed on a PerfectSilTarget® 100 HPLC Column (C8, 150 × 4.6 mm, 5 µm). For analysis of MTX, mobile phase consisted of phosphate-citrate buffer (pH 5): acetonitrile (88:12, v/v) and was delivered isocratically at a flow rate of 1 mL/min.
The column eluent was monitored using UV detector at the wavelength of 302 nm. For analysis of MTX-PEG5000, the mobile phase consisted of phosphate-citrate buffer (pH 5): acetonitrile (55:45, v/v) and was delivered isocratically at a flow rate of 0.5 mL/min. The column eluent was monitored using UV detector at the wavelength of 342 nm.
(§1) IV bolous injections of MTX and MTX-PEG5000 (70 mg/kg) were administered to mice through marginal veins by insulin syringe (gauge 27). At least three mice were sacrificed at each time point. The animals (n = 200) at dosing were in the range of 2-4 weeks of age and their mean weight was 20 ± 5 g. The blood samples were collected at 5, 10, 15, 30, 45, 60, 90, and 120 min intervals for MTX and for at 5, 10, 15, 30, 45, 60, 90, 120, 180, 240, 300, and 360 min intervals for MTX-PEG5000. At each time point, the blood samples were collected from at least three mice and after centrifuging (10000 rpm, for 5 min), the plasma samples were separated and immediately frozen at -20 °C. Then, the mice were cervically dislocated and their organs including heart, liver, spleen, kidney, lung, brain, and small intestine were removed and after washing with normal saline, were dried by facial tissue and exactly weighed. Whole removed organs and 0.25 to 0.5 g of liver and small intestine were minced and homogenized in a certain volume of normal saline using homogenizer IKA basic T25 (Germany). The organs were collected from MTX injected animals (10, 60 and 120 min for all organs and 5, 10, 30, 60 and 120 for liver tissue) and at 2, 6, 12, 24, and 48 h for mice administered by MTX-PEG5000.
The logarithm of plasma concentrations of MTX and MTX-PEG5000 were plotted vs. time. […] The pharmacokinetic parameters were obtained by fitting data to two-compartmental model equation (C = Ae^-αt + Be^-βt) and noncompartmental model using Excel 2010 (33).

Data set [1] in a line: Biodistribution (tissue distribution) after IV injection to mice. Format: in vivo. The note with it: iv 70 mg/kg. The method, then:
For preparation of MTX tissue samples, one volume of tissue homogenate in normal saline was mixed with two volume acetonitrile and centrifuged in 12000 rpm for 5 min. The supernatant was removed and evaporated to dryness under nitrogen gas. The residue was reconstituted in 250 μL mobile phase and was injected to HPLC. For preparation of MTX-PEG5000 tissue samples, one volume of tissue homogenate in normal saline was mixed with two volumes of dichloromethane and shaked for 15 min. After centrifugation (5000 rpm), the lower organic phase was aspirated and dehydrated by Na2SO4 and after dissolving in 200 μL mobile phase, was injected to HPLC. The standard solutions were prepared in triplicate at concentration levels ranging from of 1 to 50 µg/mL for MTX and 2.5 to 500 µg/mL for MTX-PEG5000.
The same HPLC instrument was utilized for analysis of MTX and MTX-PEG tissue samples. The precision and accuracy of the method were examined by adding known amounts of MTX (0. 25, 2.5 and 10 µg/mL) and MTX-PEG5000 (5, 50 and 500 µg/mL) to pool tissue (quality control) samples. The other steps were performed as plasma samples.
as §1, with “Whole removed organs and 0.25 to 0.5 g of liver and small intestine were minced and homogenized in a certain volume of normal saline using homogenizer IKA basic T25 (Germany). The organs were collected from MTX injected animals (10, 60 and 120 min for all organs and 5, 10, 30, 60 and 120 for liver tissue) and at 2, 6, 12, 24, and 48 h for mice administered by MTX-PEG5000.” left out

Details of data set [2]: method as in PMID 18346806. The following applies: cited from earlier work.
The conditions of data set [3]: relatively alkaline pH of plasma; no reference given; cited from earlier work.
Another data set deals with plasma proteins. The note with it: cited from earlier work.
Details of data set [4]: method as in earlier work. The following applies: cited from earlier work.
On the set-up of data set [5]: method as in PMID 18346806, PMID 12506184. The note with it: conjugation to PEG5000; cited from earlier work.
Details of data set [6]: method as in PMID 18346806, PMID 12506184. The note with it: drug linked to PEG40000 vs free drug; cited from earlier work.
Setting [7] is: iv 70 mg/kg, two-compartmental model, n = 3.
Setting [8] is: iv 70 mg/kg, two-compartmental model, n = 3, 70 mg/kg.

≈ marks a conversion by molar mass, not a printed value. Where “and” joins values, the source holds several entries; their conditions need not be identical. Equal values may be shown once. Entries after “also recorded” stand apart in the source; their conditions may differ. Read-outs that look alike come from different tables or passages of the source. Where only a bound is given, the exact number is not on record here.

As usually defined, the AUC is concentration integrated over time. Usually clearance stands for the volume of plasma or blood freed of the substance per unit of time. As a reminder, the MRT is the average time that molecules of a dose stay in the body. What is called logP is the decadic logarithm of the partition coefficient of the neutral form, usually between octanol and water. In “in vivo” (iv 70 mg/kg, n = 3), `CN(Cc1cnc2nc(N)nc(N)c2n1)c1ccc(C(=O)N[C@@H](CCC(=O)O)C(=O)O)cc1` [MTX, Methotrexate] showed an AUMC of 24.63 ± 2.84 mg.mL-.min2 and a Vc of 94.025 ± 6.814 mL. Moreover, the AUC in “in vivo” (iv 70 mg/kg, n = 3, 70 mg/kg) is 2.64 mg·min/mL and 2.642 mg·min/mL and 2.642 ± 0.190 mg·min/mL. For the same compound, in “in vivo” (setting [7]), the K10 was determined as 0.236 ± 0.043 min⁻¹, the K12 was 0.050 ± 0.020 min⁻¹ and the K21 is 0.036 ± 0.002 min⁻¹. Also, in “in vivo” (setting [8]), the “T1/2a (distribution half-life, T1/2 α)” value worked out at 2.445 ± 0.549 min and the “T1/2b (elimination half-life, T1/2 β)” value came out at 24.328 ± 0.657 min. In addition, in “in vivo” (mouse, plasma, 70 mg/kg, two-compartmental model, n = 3, read-out: T1/2a (distribution half-life, T1/2 α)), the half-life came out at 2.45 min. Besides, the half-life in the data set “in vivo” (mouse, plasma, 70 mg/kg, two-compartmental model, n = 3, read-out: T1/2b (elimination half-life, T1/2 β)) turned out to be 24.3 min. The clearance in the data set “in vivo” (mouse, plasma, iv 70 mg/kg, n = 3, read-out: CLs (systemic clearance)) stood at 22.4 ± 5.46 mL/min. Further, the MRT in the data set “in vivo” (mouse, plasma, iv 70 mg/kg, noncompartmental model, n = 3, read-out: MRT (mean residence time) (converted)) is 9.3 min. Moreover, the “Time after injection up to which measurable in tissues” value in data set [1] was at most 2 h. The “Accumulation in organs (liver, intestine)” value in data set [1] (70 mg/kg) was “accumulated in liver immediately after its distribution phase (10 min) and then redistributed to small intestine (60 min); also recorded: high and fast accumulation in liver”. Moreover, in data set [1] (brain), the “Presence in the brain” value is “no detectable amount of drug was found in the brain”. Also, in data set [2] (pH4), the “Solubility in aqueous solution” value is listed as 0.08 mg/mL (≈ 0.176 mM). Besides, the “Solubility in aqueous solution” value in data set [2] (pH8) is 58.17 mg/mL (≈ 128 mM). Moreover, in data set [3], the logP is -1.4. The Protein binding with plasma proteins is listed as 30-50%. For the same compound, the “Portion of the drug bound to plasma proteins” value with plasma proteins (no reference given) is given as 50%. The Plasma half-life in data set [4] is 90 to 210 min.

As to `Nc1ccn([C@@H]2O[C@H](CO)[C@@H](O)C2(F)F)c(=O)n1` [Gemcitabine], in data set [5], the AUC was 118.55 µg·min/mL, the “T1/2 α” value was 59.4 min, the “T1/2 β” value was 673.8 min and the clearance is on record as 0.654 mL/min.

With `CC[C@@]1(O)C(=O)OCc2c1cc1n(c2=O)Cc2cc3ccccc3nc2-1` [Campthotecin], in data set [6], the “T1/2 β” value is 1320 min.
